{"source": "paper PMC5575657", "about": "“Characterization and Expression Profiling of Camellia sinensis Cinnamate 4-hydroxylase Genes in Phenylpropanoid Pathways” (Genes, 2017)", "test_in_all_cases": "HPLC of p-coumaric acid formed in yeast culture", "assay_type_in_all_cases": "cell-based", "settings_in_all_cases": "0.2 mM substrate fed to yeast culture, 28 °C, 1 h; product p-coumaric acid; empty vector control", "key": {"CsC4Ha": {"target": "T1, CsC4Ha (Camellia sinensis, UniProt A0A286QXW9)", "T1 construct": "gene C4Ha; cloning reverse primer keeps the stop codon", "T1 sequence (A0A286QXW9 1-505)": "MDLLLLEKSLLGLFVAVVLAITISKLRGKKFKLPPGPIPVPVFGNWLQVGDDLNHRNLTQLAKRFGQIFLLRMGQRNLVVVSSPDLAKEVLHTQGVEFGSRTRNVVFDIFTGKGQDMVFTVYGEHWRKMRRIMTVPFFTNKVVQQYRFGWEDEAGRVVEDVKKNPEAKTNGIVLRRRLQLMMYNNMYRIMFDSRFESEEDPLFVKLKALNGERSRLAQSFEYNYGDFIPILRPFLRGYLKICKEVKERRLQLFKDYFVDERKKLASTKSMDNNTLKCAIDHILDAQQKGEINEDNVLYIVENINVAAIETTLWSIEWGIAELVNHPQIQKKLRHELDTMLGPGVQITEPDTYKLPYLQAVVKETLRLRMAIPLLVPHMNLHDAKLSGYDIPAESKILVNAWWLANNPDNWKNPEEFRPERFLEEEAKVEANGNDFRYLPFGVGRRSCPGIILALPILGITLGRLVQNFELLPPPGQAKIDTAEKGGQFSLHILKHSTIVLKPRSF"}, "CsC4Hc": {"target": "T2, CsC4Hc (Camellia sinensis, UniProt A0A286QXW5)", "T2 construct": "gene C4Hc; cloning reverse primer keeps the stop codon", "T2 sequence (A0A286QXW5 1-544)": "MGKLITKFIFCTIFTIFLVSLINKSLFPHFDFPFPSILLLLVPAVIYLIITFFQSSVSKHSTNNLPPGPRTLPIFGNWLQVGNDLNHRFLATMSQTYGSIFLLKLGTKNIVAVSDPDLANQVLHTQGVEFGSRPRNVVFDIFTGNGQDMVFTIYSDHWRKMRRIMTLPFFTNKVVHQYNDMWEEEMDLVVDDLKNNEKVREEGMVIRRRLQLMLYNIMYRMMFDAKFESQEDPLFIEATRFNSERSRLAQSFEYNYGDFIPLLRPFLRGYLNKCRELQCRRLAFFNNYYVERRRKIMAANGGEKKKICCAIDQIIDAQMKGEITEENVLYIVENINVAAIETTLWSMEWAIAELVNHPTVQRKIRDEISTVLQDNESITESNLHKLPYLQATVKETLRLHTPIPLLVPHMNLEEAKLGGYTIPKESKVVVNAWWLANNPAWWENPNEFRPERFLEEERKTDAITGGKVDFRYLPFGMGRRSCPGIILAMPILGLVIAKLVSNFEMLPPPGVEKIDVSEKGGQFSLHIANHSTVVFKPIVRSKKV"}, "CsC4Hb": {"target": "T3, CsC4Hb (Camellia sinensis, UniProt A0A286QXW8)", "T3 construct": "gene C4Hb; cloning reverse primer keeps the stop codon", "T3 sequence (A0A286QXW8 1-505)": "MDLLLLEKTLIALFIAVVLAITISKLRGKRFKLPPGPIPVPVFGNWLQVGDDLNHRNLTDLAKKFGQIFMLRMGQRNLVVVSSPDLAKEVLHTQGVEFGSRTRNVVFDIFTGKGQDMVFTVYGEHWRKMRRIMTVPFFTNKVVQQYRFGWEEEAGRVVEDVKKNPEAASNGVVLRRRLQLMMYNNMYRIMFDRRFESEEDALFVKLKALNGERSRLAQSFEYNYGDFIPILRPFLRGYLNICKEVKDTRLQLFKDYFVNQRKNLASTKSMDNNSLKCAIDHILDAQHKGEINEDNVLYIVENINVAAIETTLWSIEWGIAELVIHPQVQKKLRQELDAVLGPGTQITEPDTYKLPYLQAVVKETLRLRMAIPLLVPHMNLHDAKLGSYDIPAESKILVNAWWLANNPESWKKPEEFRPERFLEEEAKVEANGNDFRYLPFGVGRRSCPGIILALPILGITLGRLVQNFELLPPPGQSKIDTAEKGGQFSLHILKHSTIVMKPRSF"}}}
{"smiles": "O=C(O)/C=C/c1ccccc1", "note": "[trans-cinnamic acid]", "values": [{"measurement": "HPLC of p-coumaric acid formed in yeast culture", "setting": "CsC4Ha", "result": "three recombinant CsC4Hs are able to convert t-cinnamate to yield p-coumarate when expressed in yeast"}, {"measurement": "HPLC of p-coumaric acid formed in yeast culture", "setting": "CsC4Hc", "result": "three recombinant CsC4Hs are able to convert t-cinnamate to yield p-coumarate when expressed in yeast"}, {"measurement": "HPLC of p-coumaric acid formed in yeast culture", "setting": "CsC4Hb", "result": "three recombinant CsC4Hs are able to convert t-cinnamate to yield p-coumarate when expressed in yeast"}]}
